Assay results reported in US20240082260A1, “INHIBITOR OF PROTEIN KINASE D FOR USE IN PREVENTION OR TREATMENT OF HYPERLIPIDEMIA” (priority 2021, published 2024).

Columns and labels:
phosphorylated PKD2 = settings: oral 10 mg/kg once a day, HFD
Experimental: (§1) PKD inhibitor CRT0066101 was dissolved in water (10 mg/kg) and administered orally to the mice by daily gavage, while the control mice were gavaged with water. Mice were maintained on the specified diets and had ab libitum access to food and water. C57BL/6 mice were administered CRT inhibitor treatment at 4-weeks of age, while for the rescue experiment, inhibitor was given under the same circumstances but treatment started only after 7 weeks of HFD feeding. Intestinal barrier permeability was further assessed 1 hour after oral gavage of FITC-Dextran 4.
(§2) Proteins from tissues and cell culture were extracted with RIPA buffer supplemented with phosphatase and protease inhibitor (PPI, Thermo Fisher Scientific). Protein concentration was measured by Pierce™ BCA Protein Assay Kit (Thermo Fisher Scientific) following the manufacturer's protocol. Reduced protein extracts were separated on 10% SDS-PAGE gels by electrophoresis and transferred to PVDF membranes under wet transfer. Membranes were blocked in 5% (w/v) milk in TBS-T before overnight probing with indicated primary antibodies at 4° C., followed by TBS-T washes and incubation with corresponding secondary antibody.

PKD2 = target: T1, PKD2 (Homo sapiens, UniProt Q9BZL6); test: In-vitro kinase assay: PKD2 phosphorylation of APOA4; format: biochemical; settings: recombinant human PKD2 and APOA4, western blot, FIG. 5H
T1 construct: purchased Abcam ab60875
T1 sequence (Q9BZL6 1-878): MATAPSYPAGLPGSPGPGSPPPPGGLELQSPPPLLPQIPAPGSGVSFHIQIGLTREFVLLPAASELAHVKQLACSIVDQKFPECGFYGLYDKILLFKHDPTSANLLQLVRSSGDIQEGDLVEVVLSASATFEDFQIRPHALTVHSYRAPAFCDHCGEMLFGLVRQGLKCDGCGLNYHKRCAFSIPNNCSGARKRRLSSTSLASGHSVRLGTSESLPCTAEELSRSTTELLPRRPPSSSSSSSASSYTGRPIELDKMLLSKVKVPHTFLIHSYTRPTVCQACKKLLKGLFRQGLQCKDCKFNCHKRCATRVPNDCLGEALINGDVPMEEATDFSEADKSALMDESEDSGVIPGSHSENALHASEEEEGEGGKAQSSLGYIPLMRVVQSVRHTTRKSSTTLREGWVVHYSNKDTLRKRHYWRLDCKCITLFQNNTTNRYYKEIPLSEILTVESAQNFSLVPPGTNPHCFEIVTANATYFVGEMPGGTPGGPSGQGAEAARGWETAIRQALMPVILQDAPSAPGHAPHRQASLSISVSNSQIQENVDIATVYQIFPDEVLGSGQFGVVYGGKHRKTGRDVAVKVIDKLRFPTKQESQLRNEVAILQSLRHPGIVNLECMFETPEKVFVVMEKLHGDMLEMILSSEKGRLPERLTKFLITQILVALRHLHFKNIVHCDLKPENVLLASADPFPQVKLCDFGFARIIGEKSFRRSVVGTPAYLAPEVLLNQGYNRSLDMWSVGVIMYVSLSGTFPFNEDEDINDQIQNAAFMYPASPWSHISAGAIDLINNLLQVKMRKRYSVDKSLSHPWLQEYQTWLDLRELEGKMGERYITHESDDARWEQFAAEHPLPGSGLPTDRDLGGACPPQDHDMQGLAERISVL
Experimental: Recombinant human proteins used for the study, PKD2 and APOA4, were both purchased from Abcam. […] Then, western blot was performed and incubated with a primary antibody against the phosphorylated motif (RxxS/T*) (Cell Signaling).

male C57BL/6 mice on HFD = test: Oral PKD inhibitor in HFD-fed C57BL/6 mice (diet-induced obesity and diabetes); format: in vivo, mouse
Experimental: Mice body weight development was closely monitored and reported here on a weekly basis when mice were on a specified diet. All experiments were performed in male mice.
as §1
Energy expenditure, food intake, and activity measurements were obtained in a PhenoMaster (TSE Systems) as previously described (El-Merahbi, Viera et al., 2020, Trujillo Viera, El-Merahbi et al., 2016). Briefly, mice were kept in separate metabolic cages with unlimited access to water and to the specified diet. After 48 hours of acclimation, data was collected every 10 min including photobeam breaks, oxygen consumption, carbon dioxide dissipation, and food and water consumption. Results in bars represent the average of each night/day cycle.
A glucose tolerance test (GTT) was performed after overnight fasting. Mice blood glucose was assessed before and 15, 30, 60, 90, and 120 minutes after intraperitoneal injection of glucose (2 g/kg). For the Insulin tolerance test (ITT), the same measurements were performed after 4 hours of fasting and intraperitoneal injection of 0.5 U/kg of recombinant insulin. For glucose measurements, one blood drop was drawn from the tail tip into a test strip and measured with a glucometer (Accu-Chek® Roche).
Lipids tolerance test was performed as described previously (Wang, Rong et al., 2016b). Briefly, overnight fasted mice were gavaged with olive oil (10 μL/g body weight). Blood was collected at indicated times for measurement of serum triglycerides content. For lipids absorption under tyloxapol treatment, 250 μg/g of body weight were i.p. injected to mice 30 minutes before the gavage of olive oil 5 μL/g body weight.
Liver triglycerides were measured by homogenization of 50 mg of liver in 500 uL of lysis buffer and lipids extraction in methanol:chloroform, phase extraction and evaporation. The lipids were redissolved in DMSO and triglycerides quantified with the mentioned kit and according to the manufacturers' instructions.
The bedding of single-caged mice was collected and the ingested food ingestion from the individual mice was assessed. All the stools were manually collected. After overnight dissecation at 60° C., the samples were weighted and frozen for further analysis. The amount of feces produced per mouse was compared to the amount of food consumed and the weight gain. About 3 g of dried feces material were homogenized and 1 g was pressed into a tablet and accurately weighted. Calorie content from feces and diet was measured in duplicates in a 6400 Automatic Isoperibol calorimeter (Parr Instrument Company). To analyze energy excreted, the amount of energy in feces was compared to the amount of energy ingested (the product between grams of food and caloric content of the food). Lipids extraction from feces was performed as previously described (Kraus, Yang et al., 2015).
as §2

With `CC[C@@H](N)CNc1ccnc(-c2cc(-c3cnn(C)c3)ccc2O)n1` [CRT0066101] the “PKD activity in liver or adipose tissue” value (phosphorylated PKD2) was “no similar decrease was observed”, the “intestinal PKD activity (phosphorylated PKD2 in jejunum)” value (phosphorylated PKD2; 13 weeks, FIG. 6C) was “attenuated” and the “PKD2-dependent phosphorylation of APOA4” value (PKD2) was “abrogates PKD2-dependent phosphorylation”. The “accumulation of TG in the liver” value (male C57BL/6 mice on HFD; oral 10 mg/kg daily, HFD) was “did not affect”, the “brown adipose tissue morphology” value (male C57BL/6 mice on HFD; oral 10 mg/kg daily, HFD) was “promoted healthier, multilocular brown adipose tissue” and the energy expenditure (male C57BL/6 mice on HFD; oral 10 mg/kg daily, HFD) was “did not affect”. The food consumption (male C57BL/6 mice on HFD; oral 10 mg/kg daily, HFD) was “did not affect”, the “markers of liver function” value (male C57BL/6 mice on HFD; oral 10 mg/kg daily, HFD) was “did not affect” and the mobility (male C57BL/6 mice on HFD; oral 10 mg/kg daily, HFD) was “did not affect”. For the same molecule, the body weight gain (male C57BL/6 mice on HFD; oral 10 mg/kg daily, HFD, 13 weeks, vs water, FIG. 6G) was “significantly lower body weight gain”, the “levels of APOA4 in the intestine (jejunum, western blot)” value (male C57BL/6 mice on HFD; oral 10 mg/kg daily, HFD, 13 weeks, FIG. 6F) was “increased levels of APOA4” and the fecal energy excretion (male C57BL/6 mice on HFD; oral 10 mg/kg daily, HFD, FIG. 6D) was “greater fecal energy excretion”. The “intestinal TG absorption (lipids tolerance test after olive oil gavage)” value (male C57BL/6 mice on HFD; oral 10 mg/kg daily, after 9 weeks HFD, FIG. 6E) was “decreased intestinal TG absorption”, the “glucose tolerance (GTT)” value (male C57BL/6 mice on HFD; oral 10 mg/kg daily, after 10 weeks of treatment and HFD, FIG. 6H) was “improved” and the “insulin tolerance (ITT)” value (male C57BL/6 mice on HFD; oral 10 mg/kg daily, after 11 weeks of treatment and HFD, FIG. 6I) was “improved”. For the same molecule, the “obesity induced by a high-fat diet (summary statement)” value (male C57BL/6 mice on HFD; oral administration, mice, also said to prevent hyperlipidemia and diabetes and improve microflora) was “significantly reduces obesity induced by a high-fat diet”.
